Measured values taken from the supplement of paper PMC10627819.

Columns and labels:
[1] = test system: B. subtilis 168; experiment: Bliss interaction score (quartile over a dose matrix) (fitness difference); higher = more antagonism (negative = synergy)
Method in brief: (§1)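 The Bliss score is observed fitness minus expected fitness, where the expected value is the product of single-drug fitness values inferred from combination data. Fitness is OD595 at entry into stationary phase normalised to the plate's robust no-drug mean and capped at 1. Scores are reported as quartiles spanning technical, biological and donor/recipient replicates.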

[2] = test system: S. aureus DSM 20231; experiment: as above
Method in brief: as §1

[3] = test system: S. aureus Newman; experiment: as above
Method in brief: as §1

[4] = test system: S. pneumoniae D39V; experiment: as above
Method in brief: as §1

[5] = test system: B. subtilis 168; experiment: fitness (endpoint OD595 vs no drug) (fraction); higher = more growth
Method in brief: (§2)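 Growth medium was TSB, LB Lennox or CY, and plates were kept at 37 °C. Inoculation was at OD595 0.01 in 384-well plates, at 30 µl per well or 55 µl for S. pneumoniae. OD595 was monitored every 30 min for 14 h and background-subtracted using the first reading. Fitness is the optical density on entering stationary phase divided by the robust mean of no-drug controls, with values capped at 1.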

[6] = test system: S. aureus Newman; experiment: as above
Method in brief: as §2

[7] = test system: S. pneumoniae D39V; experiment: as above
Method in brief: as §2
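For Bliss interaction score (quartile over a dose matrix) in this document: first quartile when negative (synergy) and third quartile when positive (antagonism).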
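For fitness (endpoint OD595 vs no drug) in this document: OD595 on entry to stationary phase over no-drug wells; at most 1.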

O=C(O)c1cn(C2CC2)c2cc(N3CCNCC3)c(F)cc2c1=O [Ciprofloxacin] + C[C@@H]1O[C@@H]1P(=O)(O)O [Fosfomycin]
Conditions	Bliss interaction score
[1]	-0.177
[2]	0.042
[3]	0.0638
[4]	-0.0628

Conditions	fitness
[5], first compound 0.0098 µg/mL, partner 1.562 µg/mL	0.669
[5], first compound 0.0098 µg/mL, partner 3.124 µg/mL	0.577
[5], first compound 0.0195 µg/mL, partner 1.562 µg/mL	0.409
[5], first compound 0.0195 µg/mL, partner 6.248 µg/mL	0.169
[5], first compound 0.039 µg/mL, partner 1.562 µg/mL	0.0478
[5], first compound 0.039 µg/mL, partner 3.124 µg/mL	0.035
[5], first compound 0.039 µg/mL, partner 6.248 µg/mL	0.0167
[6], first compound 0.0375 µg/mL, partner 0.781 µg/mL	0.553
[6], first compound 0.0375 µg/mL, partner 1.562 µg/mL	0.455
[6], first compound 0.0375 µg/mL, partner 3.124 µg/mL	0.0938
[6], first compound 0.075 µg/mL, partner 0.781 µg/mL	0.527
[6], first compound 0.075 µg/mL, partner 3.124 µg/mL	0.117
[6], first compound 0.15 µg/mL, partner 0.781 µg/mL	0.168
[6], first compound 0.15 µg/mL, partner 1.562 µg/mL	0.114
[6], first compound 0.15 µg/mL, partner 3.124 µg/mL	0.0354
[7], first compound 0.125 µg/mL, partner 1.25 µg/mL	0.94
[7], first compound 0.125 µg/mL, partner 2.5 µg/mL	0.892
[7], first compound 0.125 µg/mL, partner 5 µg/mL	0.688
[7], first compound 0.25 µg/mL, partner 1.25 µg/mL	0.865
[7], first compound 0.25 µg/mL, partner 2.5 µg/mL	0.782
[7], first compound 0.25 µg/mL, partner 5 µg/mL	0.652
[7], first compound 0.5 µg/mL, partner 5 µg/mL	0.42

CO/N=C(\C(=O)N[C@@H]1C(=O)N2C(C(=O)O)=C(COC(C)=O)CS[C@H]12)c1csc(N)n1 [Cefotaxime] + CN(C)c1cc(NC(=O)CNC(C)(C)C)c(O)c2c1C[C@H]1C[C@H]3[C@H](N(C)C)C(O)=C(C(N)=O)C(=O)[C@@]3(O)C(O)=C1C2=O [Tigecycline]
Conditions	Bliss interaction score
[1]	0.0544
[2]	0.0485
[3]	-0.0426
[4]	-0.0363

fitness, one replicate
Conditions	partner 0.039 µg/mL	partner 0.078 µg/mL	partner 0.125 µg/mL	partner 0.156 µg/mL	partner 0.25 µg/mL	partner 0.5 µg/mL
[5], first compound 0.00775 µg/mL	0.83	0.784	–	0.811	–	–
[5], first compound 0.0155 µg/mL	0.696	0.677	–	0.621	–	–
[5], first compound 0.031 µg/mL	0.476	0.528	–	0.589	–	–
[5], first compound 0.0625 µg/mL	–	–	0.623	–	0.513	0.573
[5], first compound 0.125 µg/mL	–	–	0.457	–	0.4	0.406
[5], first compound 0.25 µg/mL	–	–	0.307	–	0.237	0.252
[6], first compound 0.039 µg/mL	0.709	0.781	–	0.776	–	–
[6], first compound 0.625 µg/mL	0.0125	0.0197	–	0.0212	–	–
[6], first compound 1.25 µg/mL	0.0613	0.0298	–	0.023	–	–
[6], first compound 2.5 µg/mL	0.0425	0.0445	–	0.0375	–	–

Conditions	fitness
[5], first compound 0.5 µg/mL, partner 0.039 µg/mL	0.231
[5], first compound 0.5 µg/mL, partner 0.078 µg/mL	0.198
[5], first compound 0.5 µg/mL, partner 0.156 µg/mL	0.234
[5], first compound 1 µg/mL, partner 0.039 µg/mL	0.0778
[5], first compound 1 µg/mL, partner 0.078 µg/mL	0.092
[5], first compound 1 µg/mL, partner 0.156 µg/mL	0.109
[5], first compound 2 µg/mL, partner 0.039 µg/mL	0.0602
[5], first compound 2 µg/mL, partner 0.078 µg/mL	0.0925
[5], first compound 2 µg/mL, partner 0.156 µg/mL	0.101
[6], first compound 0.078 µg/mL, partner 0.039 µg/mL	0.706
[6], first compound 0.078 µg/mL, partner 0.078 µg/mL	0.777
[6], first compound 0.078 µg/mL, partner 0.156 µg/mL	0.767
[6], first compound 0.156 µg/mL, partner 0.039 µg/mL	0.655
[6], first compound 0.156 µg/mL, partner 0.078 µg/mL	0.701
[6], first compound 0.156 µg/mL, partner 0.156 µg/mL	0.714
[6], first compound 0.312 µg/mL, partner 0.039 µg/mL	0.427
[6], first compound 0.312 µg/mL, partner 0.078 µg/mL	0.434
[6], first compound 0.312 µg/mL, partner 0.156 µg/mL	0.422
[7], first compound 0.0018 µg/mL, partner 0.325 µg/mL	0.978
[7], first compound 0.0018 µg/mL, partner 0.65 µg/mL	0.936
[7], first compound 0.0018 µg/mL, partner 1.3 µg/mL	0.993
[7], first compound 0.0018 µg/mL, partner 2.6 µg/mL	0.92
[7], first compound 0.0035 µg/mL, partner 0.325 µg/mL	0.957
[7], first compound 0.0035 µg/mL, partner 0.65 µg/mL	0.903
[7], first compound 0.0035 µg/mL, partner 1.3 µg/mL	0.954
[7], first compound 0.0035 µg/mL, partner 2.6 µg/mL	0.88
[7], first compound 0.007 µg/mL, partner 0.325 µg/mL	0.918
[7], first compound 0.007 µg/mL, partner 0.65 µg/mL	0.849
[7], first compound 0.007 µg/mL, partner 1.3 µg/mL	0.896
[7], first compound 0.007 µg/mL, partner 2.6 µg/mL	0.774

O=C(O)c1cn(C2CC2)c2cc(N3CCNCC3)c(F)cc2c1=O [Ciprofloxacin] + CN[C@@H]1[C@H](O)[C@H](NC)[C@H]2O[C@@]3(O)C(=O)C[C@@H](C)O[C@H]3O[C@@H]2[C@H]1O [Spectinomycin]
Conditions	Bliss interaction score
[1]	0.0965
[2]	0.0785
[3]	-0.0629
[4]	-0.0847

fitness
Conditions	partner 2 µg/mL	partner 4 µg/mL	partner 8 µg/mL	partner 16 µg/mL
[5], first compound 0.0098 µg/mL	0.949	0.897	0.94	–
[5], first compound 0.0195 µg/mL	0.694	0.741	0.789	–
[5], first compound 0.039 µg/mL	–	0.257	–	–
[6], first compound 0.0375 µg/mL	–	0.643	0.666	0.622
[6], first compound 0.075 µg/mL	–	0.627	–	0.615
[6], first compound 0.15 µg/mL	–	–	0.0938	0.0557
[7], first compound 0.125 µg/mL	–	0.919	0.913	0.706
[7], first compound 0.25 µg/mL	–	0.797	0.795	–
[7], first compound 0.5 µg/mL	–	–	–	0.446

fitness, one replicate
Conditions	first compound 0.078 µg/mL	first compound 0.156 µg/mL	first compound 0.25 µg/mL	first compound 0.312 µg/mL
[6], partner 16 µg/mL	0.203	0.0195	–	0.0278
[6], partner 32 µg/mL	0.116	0.0216	–	0.0094
[6], partner 64 µg/mL	0.0489	0.0519	–	0.102
[7], partner 16 µg/mL	–	–	0.48	–

CO/N=C(\C(=O)N[C@@H]1C(=O)N2C(C(=O)O)=C(COC(N)=O)CS[C@H]12)c1ccco1 [Cefuroxime] + O=C(O[C@@H]1Cc2c(O)cc(O)cc2O[C@@H]1c1cc(O)c(O)c(O)c1)c1cc(O)c(O)c(O)c1 [EGCG]
Conditions	Bliss interaction score
[1]	0.158
[2]	0.0989
[3]	0.0827
[4]	0.0461

fitness, [5]
Conditions	first compound 0.04875 µg/mL	first compound 0.0975 µg/mL	first compound 0.195 µg/mL
partner 6.25 µg/mL	0.74	0.667	0.438
partner 12.5 µg/mL	0.376	0.493	0.506
partner 25 µg/mL	0.249	0.219	0.17

fitness, one replicate
Conditions	first compound 0.04875 µg/mL	first compound 0.0975 µg/mL	first compound 0.195 µg/mL	first compound 0.39 µg/mL	first compound 0.78 µg/mL	first compound 1.562 µg/mL	first compound 3.125 µg/mL	first compound 6.25 µg/mL
[5], partner 6.25 µg/mL	–	–	–	0.425	0.411	0.356	0.3	0.304
[5], partner 12.5 µg/mL	–	–	–	0.461	0.436	0.195	0.236	0.279
[5], partner 25 µg/mL	–	–	–	0.274	0.318	0.103	0.064	0.0477
[6], partner 12.5 µg/mL	0.885	0.801	0.879	–	–	–	–	–
[6], partner 25 µg/mL	0.767	0.773	0.756	–	–	–	–	–
[6], partner 50 µg/mL	0.688	0.617	0.561	–	–	–	–	–
